Measured values: patent US8309064B2, “Skin care compositions comprising phenoxyalkyl amines” (Conopco, Inc., priority 2009, dated 2012)

Test system: Melanoderm tissue equivalent model MEL-300 containing melanocytes
Test: Inhibition of melanogenesis (total melanin content) in Melanoderm tissue equivalent model
Format: cell-based
Details: Melanocyte, 336 h; 5 μM in maintenance medium, 14 days, total melanin content, DMSO vehicle control
Protocol: Melanoderm tissue equivalent model MEL-300 (MatTek: Ashland, Mass.) containing melanocytes obtained from dark skin individuals were cultured as per supplier instructions. Components were added to the maintenance medium phase (no topical treatments) at a final concentration of 5 μM for 14 days at which time the experiment was terminated and the tissues assessed for melanin content. Medium and treatments were changed three times per week. DMSO was utilized as the vehicle control and all treatments were performed at least in duplicate.
For quantification of total melanin, each Melanoderm was placed into an individual Eppendorf tube (2 mL) into which 250 μL of Solvable™ tissue solubilizer (Packard Bioscience Co., Cat#6NE9100) was added. Each tube was vortexed and incubated at 60° C. for 18 hours. Each sample was then centrifuged (5-minutes at 13,000 RPMs) to remove any particulates. 100 or 200 μL of supernatant were transferred to a 96 well microtiter plate and the absorbance read at 490 nm. Total melanin content was calculated from a standard curve using synthetic melanin (Sigma Cat# M8631). Data was analyzed for significance using the t-test in Microsoft Excel to generate p-values (p-values less than 0.01 represent 99% confidence, p values of 0.05 represent 95% confidence both of which are statistically significant).

SMILES	inhibition at 5 µM [%]
Cc1ccccc1OCCNCCO [5g, 2-(2-(o-tolyloxy)ethylamino)ethanol]	3.2
Cc1ccccc1OCCCCNCCO [5e, 2-(4-(o-tolyloxy)butylamino)ethanol]	17.9
CC(C)c1ccccc1OCCCCCCN(C)C [5t, 6-(2-isopropylphenoxy)-N,N-dimethylhexan-1-amine]	48.5
CCNCCCCCCOc1cccc2ccccc12 [5gg, N-ethyl-6-(naphthalen-1-yloxy)hexan-1-amine]	35
CN(C)CCCCCCOc1ccccc1-c1ccccc1 [5v, 6-(2-phenylphenoxy)-N,N-dimethylhexan-1-amine]	56.7
COCCNCCCCCCOc1ccccc1C [5c, 6-(o-tolyloxy)-N-(2-methoxyethyl)hexan-1-amine]	31.7
Cc1cccc(OCCCCCCN(C)C)c1 [5p, 6-(m-tolyoxy)-N,N-dimethylhexan-1-amine]	37.1
CCc1ccccc1OCCCCCCN(C)C [5r, 6-(2-ethylphenoxy)-N,N-dimethylhexan-1-amine]	32.9
Cc1ccccc1OCCCNCCO [5f, 2-(3-(o-tolyloxy)propyalmino)ethanol]	10.7
OCCNCCCCCCOc1ccccc1 [5a, 2-(6-phenoxyhexylamino)ethanol]	21.9
Cc1ccccc1OCCCCCCNC(C)(C)C [5i, 6-(o-tolyloxy)-N-tert-butylhexan-1-amine]	23.2
OCCNCCCCCCCc1ccccc1 [5kk, 2-(7-phenylheptylamino)ethanol]	32.7
Cc1ccccc1OCCCCCCN(C)C [5j, 6-(o-tolyloxy)-N,N-dimethylhexan-1-amine]	24.2
Cc1ccccc1OCCCCCCN(CCO)CCO [5m, 6-(o-tolyloxy)-N,N-di(2-hydroxyethyl)hexan-1-amine]	32.9
OCCNCCCCCCOC1CCCCC1 [5ll, 2-(6-(cyclohexyloxy)hexylamino)ethanol]	25
Cc1ccccc1OCCCCCCN1CCOCC1 [5n]	42.1
Cc1ccc(OCCCCCCNC(C)(C)C)cc1 [5y, 6-(p-tolyloxy)-N-tert-butylhexan-1-amine]	47.5

SMILES	inhibition at 5 µM [%]
CC(=O)N(CCO)CCCCCCOc1ccccc1C [5jj, N-(6-(o-tolyloxy)hexyl)-N-(2-hydroxyethyl)acetamide]	-5.2
Cc1ccc(OCCCCCCN(C)C)cc1 [5q, 6-(p-tolyoxy)-N,N-dimethylhexan-1-amine]	41.5
CN(C)CCCCCCOc1cccc2ccccc12 [5w, N,N-dimethyl-6-(naphthalen-4-yloxy)hexan-1-amine]	51.3
CC(C)(C)NCCCCCCOc1ccccc1C(C)(C)C [5cc, 6-(2-tert-butylphenoxy)-N-tert-butylhexan-1-amine]	55.2
Cc1ccccc1OCCCCCCn1ccnc1 [5o, 1-(6-(o-tolyloxy)hexyl)-1H-imidazole]	22.1
CC(C)(C)NCCCCCCOc1cccc2ccccc12 [5ee, N-tert-butyl-6-(naphthalen-4-yloxy)hexan-1-amine]	35.9
CC(C)(C)NCCCCCCOc1ccccc1-c1ccccc1 [5dd, 6-(2-phenylphenoxy)-N-tert-butylhexan-1-amine]	54.8
CCN(CC)CCCCCCOc1ccccc1C [5l, 6-(o-tolyloxy)-N,N-diethylhexan-1-amine]	45.6
CCNCCCCCCOc1ccccc1C [5ff, 6-(o-tolyloxy)-N-ethylhexan-1-amine]	18.1
CCNCCCCCCOc1ccccc1CC [5hh, 6-(2-ethylphenoxy)-N-ethylhexan-1-amine]	37.1
Cc1ccccc1OCCCCCNCCO [5d, 2-(5-(o-tolyloxy)pentylamino)ethanol]	20.8
Cc1ccccc1OCCCCCCN [5ii, 6-(o-tolyloxy)hexan-1-amine]	-6.9
CCN(C)CCCCCCOc1ccccc1C [5k, 6-(o-tolyoxy)-N-ethyl-N-methylhexan-1-amine]	23.6
CN(C)CCCCCCOc1ccccc1C(C)(C)C [5u, 6-(2-tert-butylphenxoy)-N,N-dimethylhexan-1-amine]	49.6
Cc1ccccc1OCCCCCCNCCO [5b, 2-[[6-(2-methylphenoxy)hexyl]amino]-ethanol]	24.1
CC(C)c1ccccc1OCCCCCCNC(C)(C)C [5bb, 6-(2-isopropylphenoxy)-N-tert-butylhexan-1-amine]	44.2

Same assay, conditions: Melanoderm MEL-300, 5 μM, 14 days

SMILES	melanogenesis inhibition (in words)
Cc1ccccc1OCCCCCNCCO [5d, 2-(5-(o-tolyloxy)pentylamino)ethanol]	highest melanogenesis inhibition in this set
Cc1ccccc1OCCCCCCNCCO [5b, 2-[[6-(2-methylphenoxy)hexyl]amino]-ethanol]	highest melanogenesis inhibition in this set
